We go through three molecules from patent US20220133842A1 (priority 2019, published 2022).

Data set [1] deals with IPEC-J2 cells. In words: cells. Type of data set: cell-based, pig. The following applies: read-out: IC50 (concentration causing 50% cell death).
For data set [2], the system named is Clostridium perfringens (ATCC 13124). To be noted: Clostridium perfringens, ATCC13124.
Data set [3] relates to Streptococcus pyogenes (DSM 20565). In words: microbe, parasite or virus in culture. Type of data set: cell-based.
Data set [4] has as its system Caco-2 cells (ATCC HTB-37). Description: cells. Type of data set: cell-based, human. To be noted: read-out: IC50 (concentration causing 50% cell death).
The test system of data set [5] is Clostridium coccoides (DSM 935). Description: microbe, parasite or virus in culture. The format is cell-based.
For data set [6], the system named is Propionibacterium acnes (ATCC 6919). In words: microbe, parasite or virus in culture. The format is cell-based.
Another data set deals with T84 cells (ATCC CCL-248). Description: cells. To be noted: read-out: IC50 (concentration causing 50% cell death). Type of data set: cell-based, human.
Data set [7] relates to Clostridium difficile (DSM 1296). Description: microbe, parasite or virus in culture. Type of data set: cell-based.
Data set [8] deals with Clostridium nexile (DSM 1787). In words: microbe, parasite or virus in culture. The format is cell-based.
Data set [9] relates to Enterococcus faecalis (DSM 13591). In words: microbe, parasite or virus in culture. Type of data set: cell-based.
The test system of data set [10] is Helicobacter pylori (ATCC 43504). In words: microbe, parasite or virus in culture. Type of data set: cell-based.
Data set [11] concerns Streptococcus thermophilus (ATCC LMD-9). In words: microbe, parasite or virus in culture. The format is cell-based.
For data set [12], the system named is Bacteroides thetaioataomicron (DSM 2255). Description: microbe, parasite or virus in culture. Type of data set: cell-based.
Data set [13] has as its system Clostridium perfringens (ATCC13124). Type of data set: cell-based.
The subject of data set [14] is Lactobacillus acidophilus (DSM 20079). Description: microbe, parasite or virus in culture. Type of data set: cell-based.
In data set [15] the test system is Clostridium botulinum (DSM 1985). In words: microbe, parasite or virus in culture. Type of data set: cell-based. The following applies: Clostridium botulinum, DSM1985.
Data set [16] deals with Clostridium propionicum (DSM 6251). In words: microbe, parasite or virus in culture. The format is cell-based.
Data set [17] relates to human or porcine intestinal cells grown on inserts.
The test system of data set [18] is human (Caco-2 and T84) and pig (IPEC-J2) intestinal cells.
The subject of data set [19] is IPEC-J2 cells.
Data set [20] relates to Fusarium verticillioides (DSM 62264). The format is cell-based.
Data set [21] relates to Listeria monocytogenes (DSM 20600). The format is cell-based.
The subject of data set [22] is Fusarium graminearum (DSM 1095). Type of data set: cell-based. The following applies: Fusarium graminearum (DSM 1095).
In data set [23] the test system is Candida albicans (DSM 10697). Type of data set: cell-based.
For data set [24], the system named is Bacillus subtilis (DSM 347). Type of data set: cell-based.
A further data set has as its system Bacillus cereus (DSM 31). Type of data set: cell-based.
Data set [25] relates to Micrococcus luteus (DSM 20030). The format is cell-based.
Data set [26] deals with Staphylococcus aureus (ATCC 6538P). Type of data set: cell-based.
In data set [27] the test system is Aspergillus flavus (DSM 1959). The format is cell-based.
In data set [28] the test system is Citrobacter farmeri (ATCC 51633). The format is cell-based.
Data set [29] has as its system Escherichia coli (ATCC 8739). Type of data set: cell-based.
Data set [30] deals with Citrobacter rodentium (ATCC 51116). The format is cell-based.
Data set [31] has as its system Klebsiella variicola (DSM 15968). The format is cell-based.
Data set [32] concerns Mycobacterium smegmatis (ATCC 700084). Type of data set: cell-based.
In data set [33] the test system is Staphylococcus aureus MRSA USA300 (ATCC BAA-1717). The format is cell-based.
For data set [34], the system named is Aspergillus ochraceus (DSM 824). The format is cell-based.
Data set [35] has as its system Acinetobacter baumannii (CIP 110431). The format is cell-based.
Data set [36] has as its system Arthrobacter gandavensis (DSM 2447). Type of data set: cell-based.
Data set [37] relates to Aspergillus niger (ATCC 9142). Type of data set: cell-based.
Data set [38] relates to Klebsiella pneumoniae (DSMZ 26371). The format is cell-based.
The subject of data set [39] is Shigella flexneri (ATCC 12022). Type of data set: cell-based.
The subject of data set [40] is Fusarium oxysporum (DSM 62316). The format is cell-based.
Data set [41] has as its system Salmonella enterica (CIP 80.39). Type of data set: cell-based.
The subject of data set [42] is Pseudomonas aeruginosa (CIP 107398). Type of data set: cell-based.
The subject of data set [43] is Lactococcus lactis (DSM 20481). Type of data set: cell-based.
Data set [44] deals with Clostridium perfringens (ATCC 13124). Description: microbe, parasite or virus in culture. To be noted: ATCC13124.

Values after ≈ are worked out from the molar mass of the structure shown. Values joined by “and” are separate entries in the source; they are usually repeats but may differ in a detail not shown here. Equal values may be shown once. Read-outs that look alike come from different tables or passages of the source.

As for `Cc1ncc([N+](=O)[O-])n1CCO` [Metronidazole], the IC50 was > 1500 µM in the data set on IPEC-J2 cells [1] (Sus scrofa, IPEC-J2, 48 h); > 1500 µM in [4] (Homo sapiens, Caco-2, 48 h); > 1500 µM with T84 cells (ATCC CCL-248) (Homo sapiens, T84, 48 h). Besides, the figures for the transepithelial electrical resistance with Caco-2 cells (human), with T84 cells (human) and in the data set on IPEC-J2 cells [19] (pig) were 252 +/− 13.7 ohm.cm2, 293 +/− 12.3 ohm.cm2 and 875 +/− 203 ohm.cm2, respectively. Further, in data set [2], the “MIC (mg/L)” value was 1.60 mg/L (≈ 9.35 µM). The MIC in data set [3] (Streptococcus pyogenes, DSM20565) is > 1500 µM; in data set [5] (Blautia producta, DSM935) it was 0.29 µM (≈ 0.0496 µg/mL); in data set [6] (Cutibacterium acnes, ATCC6919) it was 1500 µM (≈ 257 µg/mL); in data set [7] (Clostridioides difficile, DSM1296), 1.17 µM (≈ 0.2 µg/mL); in data set [8] (Faecalimonas nexilis, DSM1787), 2.34 µM (≈ 0.401 µg/mL); in data set [9] (Enterococcus faecalis, DSM13591), > 1500 µM. Also, the MIC in data set [10] (Helicobacter pylori, ATCC 21031 / ATCC 43504) is > 1500 µM; in data set [11] (Streptococcus thermophilus), 1500 µM (≈ 257 µg/mL); in data set [12] (Bacteroides, DSM2255), 2.34 µM (≈ 0.401 µg/mL); in [14] (Lactobacillus acidophilus, DSM20079), > 1500 µM; in [15], 0.29 µM (≈ 0.0496 µg/mL); in data set [16] (Anaerotignum propionicum, DSM6251), 1.17 µM (≈ 0.2 µg/mL). The entries for the “increase in MIC” value in [13] (after 7 days of contact) and in data set [13] (after 9 days of contact) were 10 fold and 50-100 fold, respectively. In addition, the “decrease in transepithelial electrical resistance” value in [17] (human, pig) is 0-34%. In [18], the “toxicity to intestinal cells” value was “not toxic”.

For `CO/C1=C\C(C)=C\[C@@H](C)[C@@H](O)[C@@H](C)C/C(C)=C/C=C/[C@H](OC)[C@@H]([C@@H](C)[C@@H](O)[C@H](C)[C@@]2(O)C[C@@H](O)[C@H](C)[C@@H](C(C)C)O2)OC1=O` [Bafilomycin A1], the IC50 in the data set on IPEC-J2 cells [1] turned out to be 1.8 µM; in data set [4], 11.8 µM; with T84 cells (ATCC CCL-248), 9.9 µM. For the same molecule, the transepithelial electrical resistance with Caco-2 cells is 112 ohm.cm2; in the data set with T84 cells, 118 ohm.cm2; in the data set on IPEC-J2 cells [19] it was 191 ohm.cm2. The MIC in [2] is 25 µM (≈ 15.6 µg/mL); in data set [20] it was 50 µM (≈ 31.1 µg/mL); in data set [3], 66 µM (≈ 41.1 µg/mL); in [21], 25 µM (≈ 15.6 µg/mL); in data set [22], 6.25 µM (≈ 3.89 µg/mL); in [23] it was >100 µM. In addition, the MIC in data set [5] was >100 µM; in [6], 50 µM (≈ 31.1 µg/mL); in data set [24] it was 100 µM (≈ 62.3 µg/mL); against Bacillus cereus (DSM 31) it was 12.5 µM (≈ 7.79 µg/mL); in data set [25], 25 µM (≈ 15.6 µg/mL); in [7], >100 µM. Moreover, the MIC is 12.5 µM (≈ 7.79 µg/mL) in data set [26]; 50 µM (≈ 31.1 µg/mL) in data set [8]; >100 µM in [9]; 3.25 µM (≈ 2.02 µg/mL) in [27]; 100 µM (≈ 62.3 µg/mL) in data set [28]; 25 µM (≈ 15.6 µg/mL) in data set [29]. For the same molecule, the MIC was >100 µM in [10]; 25 µM (≈ 15.6 µg/mL) in data set [11]; >100 µM in data set [30]; >100 µM in data set [31]; >100 µM in [12]; >100 µM in data set [32]. For the same molecule, the MIC was >100 µM in [33]; >100 µM in data set [34]; >100 µM in data set [35]; 33 µM (≈ 20.6 µg/mL) in [14]; 6.25 µM (≈ 3.89 µg/mL) in data set [15]; 25 µM (≈ 15.6 µg/mL) in data set [16]. For the same molecule, the MIC was 3 µM (≈ 1.87 µg/mL) in [36]; >100 µM in data set [37]; 100 µM (≈ 62.3 µg/mL) in data set [38]; >100 µM in data set [39]; >100 µM in data set [40]; >100 µM in data set [41]. The MIC is >100 µM in data set [42] and 50 µM (≈ 31.1 µg/mL) in data set [43]. Besides, the “MIC (mg/L)” value in data set [2] worked out at 15.5 mg/L (≈ 24.9 µM). Further, the “decrease in transepithelial electrical resistance” value in data set [17] is given as 61-75%. The “safety factor (IC50 in the toxicity test divided by MIC on Clostridium perfringens ATCC 13124)” value in [18] is recorded as “less than 1”. For the same molecule, the “toxicity to intestinal cells” value in data set [18] is “toxic”.

Turning to `CN(C)[C@@H]1C(O)=C(C(N)=O)C(=O)[C@@]2(O)C(O)=C3C(=O)c4c(O)cccc4[C@@](C)(O)[C@H]3C[C@@H]12` [Tetracycline], the MIC in data set [44] was 11.7 µM and 5.2 µg/mL.
